{
  "source": "patent US20170143646A1",
  "about": "“EFFECT OF LIPOPHILIC NUTRIENTS ON DIABETIC EYE DISEASES” (OmniActive Health Technologies Limited, priority 2014, published 2017)",
  "type_in_all_cases": "in vivo, rat",
  "key": {"[1]": {"test_system": "STZ-induced diabetic rats", "test": "Slit lamp examination and cataract grading (diabetic cataract)", "conditions": "end of ten weeks; lutein 0.5% or curcumin 0.01% in diet; Group-D stage 4", "experimental": "Male Wistar strain (WNIN) rats (2 months old; Average BW of 213±14 g) obtained from the National Center for Laboratory Animal Sciences, National Institute of Nutrition, Hyderabad, India (NCLAS, NIN). Animals were maintained at NCLAS, NIN and kept for acclimatization in an experimental room for two weeks. Diabetes was induced in overnight fasted animals by a single intraperitoneal injection of STZ (30 mg/kg) in 0.1 M citrate buffer, pH 4.5. Another set of rats, which received only a vehicle, served as the control (Group I; n=12). Fasting blood glucose levels were measured 72 h after STZ injection. Animals having blood glucose levels >150 mg/dL were considered diabetic and those were only divided into five groups (Group II-VI). A group of control rats (n=6) were fed with 0.01% soluble curcumin (Group VII) and soluble 0.5% lutein alone (Group VIII).\nSlit lamp examination and Cataract grading: Eyes were examined every week using a slit lamp bio microscope on dilated pupils. Initiation and progression of lens opacity was graded into five categories (0-4).\nCataract development and progression: Onset and progression of cataract is monitored by slit lamp biomicroscope examination as described below: Eyes were examined every week using a slit lamp biomicroscope (Kowa SL15, Portable, Japan) on dilated pupils."}, "[2]": {"test_system": "STZ-induced diabetic rats", "test": "Total and soluble protein in lens homogenate (Lowry)", "experimental": "Blood/Lens collection and processing: Blood was drawn once in every week from retro orbital plexus for glucose and insulin estimation. At the end of 12 weeks, animals were sacrificed by CO2 asphyxiation and lenses were dissected by posterior approach and stored at −70° C. until further analysis. A 10% homogenate was prepared from 3-5 pooled lenses in 50 mM phosphate buffer, pH 7.4. All the biochemical parameters were analyzed in the soluble fraction of the lens homogenate (15,000x g at 4° C.) except for lens malondialdehyde (MDA), which was determined in the total homogenate.\nBiochemical estimations: Lens MDA, as thiobarbituric acid reacting substances (TBARS) protein carbonyl content were determined according to the methods for estimating the protein carbonyl content described by Suryanarayana P et al. in the research paper “Curcumin and turmeric delay streptozotocin-induced diabetic cataract in rats,” Invest Ophthalmol Vis Sci 2005; 46(6):2092-9. Total, soluble and insoluble protein was assayed by Lowry method using bovine serum albumin (BSA) as standard.\nIndividual lenses were weighed and pooled into 4 lenses for a pool, and such 4-5 pools were formed per group. A 10% homogenate was prepared in 50 mM sodium phosphate buffer pH 7.4, with tissue homogenizer at intermittent time gaps to avoid excess heat generation. Separate aliquots of total homogenate (TH) were made 250 μl for TBARS assay, 150 μl for sorbitol estimation, and 20 μl for protein estimation. Remaining homogenate was centrifuged at 10,000 RPM for 30 min at 4° C. Supernatant was separated into labelled vials, as total soluble protein (TSP).\nDetermining soluble percentage of protein in lens homogenate: Protein estimation was done in lens homogenate and soluble fraction by Lowry's method. Amount of protein present per gram weight of lens was calculated. Percentage of soluble protein was calculated by multiplying the fraction of soluble protein by 100."}, "[3]": {"test_system": "STZ-induced diabetic rats", "test": "SDS-PAGE protein profiling of lens soluble fraction", "conditions": "vs group-D", "experimental": "(§1) Sodium dodecyl sulfate polyacrylamide gel electrophoresis (SDS-PAGE) and size exclusion chromatography of lens proteins: Subunit profile and cross-linking of soluble proteins were analyzed on 10% polyacrylamide in the presence of sodium dodecyl sulfate (SDS) under reducing conditions. Crystalline distribution in the soluble protein fraction was performed by size exclusion chromatography on a 600×7.5 mm TSK-G4000 SW column (TOSOH Co., Japan) using a HPLC system. The column was equilibrated with 0.1 M sodium phosphate buffer pH 6.7 containing 0.1 M sodium chloride at a flow rate of 1 ml/min.\nSDS-PAGE protein profiling: Differences in protein distribution pattern were observed by running the lens protein samples on 12% polyacrylamide gel. 30 μg of protein was loaded per well along with molecular weight marker for SDS-PAGE (Broad range SDS-PAGE marker, BioRad). […] FIG. 3 represents the SDS-PAGE pattern of soluble fraction of lens proteins, as shown in the drawings accompanied with the specification."}, "[4]": {"test_system": "STZ-induced diabetic rats", "test": "Size exclusion HPLC of lens soluble protein", "conditions": "vs Group-D", "experimental": "as §1"}, "[5]": {"test_system": "STZ-induced diabetic rats", "test": "Electroretinogram, oscillatory potentials (OPs)", "conditions": "curcumin 0.01% diet; D 334.2", "experimental": "Experimental design: Male Wistar-NIN rats with an average body weight of 120 gms are obtained from the National center for laboratory animal sciences, National institute of Nutrition, Hyderabad (NCLAS, NIN). Animals were maintained at NCLAS, MN and kept for acclimatization in an experimental room for two weeks. Diabetes was induced in overnight fasted animals by a single intraperitoneal injection of STZ (30 mg/kg) in 0.1 M citrate buffer, pH 4.5. Another set of rats, which received only a vehicle, served as the control (Group-C; n=6). Fasting blood glucose levels were measured 72 h after STZ injection. Animals having blood glucose levels >150 mg/dL were considered diabetic and all the animals are divided into four groups as shown in the Table 3 below.\nAll the animals were housed in individual cages maintained on their respective diets for 12. weeks and drinking water was provided ad libitum throughout the study period. Daily food intake and weekly body weights, fasting glucose levels were noted. […]\nElectroretinogram (ERG) Analysis: Diabetic retinoapthy is characterized by disturbances in retinal function. The retinal function can be assessed by electroretinogram. […]\nAnimals were dark-adapted for overnight and prepared for the ERG procedure under dim red illumination. […] The oscillatory potentials were extracted from the wave form and the sum of all OPs was calculated."}, "[6]": {"test_system": "STZ-induced diabetic rats", "test": "Retina histology (H & E), thickness of retinal layers", "conditions": "curcumin 0.01% diet, Table 6", "experimental": "(§2) Histopathology: The eye balls from selected animals were collected in fixative 4% paraformaldehyde solution in separately labeled vials. The tissues were given some nicks so as to facilitate penetration of fixative into deep tissue. They were kept at room temperature for 24-48 hrs followed by replacing the fixative with 20 mM sodium phosphate buffer. Buffer was scheduled to be replaced with fresh buffer one each week until histopathological processing. Tissues were embedded in paraffin and sections were taken in microtome. Coated slides are used for immunohistochemistry and immunofluorescence, whereas uncoated slides for hemotoxylin and eosin (H & E) staining.\nA representative table of retinal layers thickness (in μm) measured by the use of Lieca application suit, Leica, Switzerland. C, Non diabetic control; D, Diabetic control; D+RL, Diabetes+Regular Lutein; D+SL, Diabetes+Soluble Lutein; GCL, ganglion cell layer; IPL, inner plexiform layer; INL, inner nuclear layer; OPL, outer plexiform layer; ONL, outer nuclear layer; PRL, photo receptor layer."}, "Rhodopsin (Rho) [7]": {"test_system": "Rhodopsin (Rho)", "test": "Rhodopsin mRNA in retina by real-time PCR", "conditions": "diabetic retina, curcumin 0.01% diet", "experimental": "(§3) Quantitative real-time PCR: Total RNA was extracted from the retina of rats using Tri reagent. Isolated RNA was further purified by RNeasy Mini Kit (Qiagen) and quantified by measuring the absorbance at 260 and 280 nm on ND1000 spectrophotometer (NanoDrop technologies, Delaware, USA). The quality of RNA preparation was assessed by electrophoresis on a denaturing agarose gel. Two μg of total RNA was reverse transcribed using High Capacity cDNA Reverse Transcription kit. Reverse transcription reaction was carried out with a thermocycler (ABI 9700). Real-time polymerase chain reaction (PCR) (ABI-7500) was performed in triplicates with 25 ng cDNA templates using SYBR green master mix with gene specific primers. Normalization and validation of data were carried using (3-actin as an internal control and data were compared between samples according to comparative threshold cycle (2^-ΔΔct) method."}, "Rhodopsin (Rho) [8]": {"test_system": "Rhodopsin (Rho)", "test": "Rhodopsin protein in retina by immunofluorescence", "conditions": "diabetic retina, curcumin 0.01% diet", "experimental": "as §2"}, "[9]": {"test_system": "Nerve Growth Factor (NGF)", "test": "NGF gene expression in retina by real-time PCR", "conditions": "diabetic retina, curcumin 0.01% diet", "experimental": "as §3"}, "[10]": {"test_system": "Nerve Growth Factor (NGF)", "test": "NGF protein in retina by immunofluorescence", "conditions": "diabetic retina, curcumin 0.01% diet", "experimental": "as §2"}, "[11]": {"test_system": "Platelet-derived growth factor (PDGF)", "test": "PDGF expression in retina by immunohistochemistry", "conditions": "diabetic retina, curcumin 0.01% diet", "experimental": "as §2"}},
  "data": [
    {"smiles": "COc1cc(/C=C/C(=O)CC(=O)/C=C/c2ccc(O)c(OC)c2)ccc1O", "note": "[RC, curcumin]", "values": [
      {"measurement": "severity of cataracts (stage 0-4)", "setting": "[1]", "value": 3.0, "unit": "stage"},
      {"measurement": "loss of soluble protein compared to group-D", "setting": "[2]; lens", "value": "significantly prevented loss of soluble protein"},
      {"measurement": "Total protein", "setting": "[2]; lens homogenate, mean ± SEM, n = 6, lutein 0.5% or curcumin 0.01% diet, 12 weeks", "value": "368.50 ± 19.2", "unit": "mg/gm lens"},
      {"measurement": "Soluble protein", "setting": "[2]; lens soluble fraction, mean ± SEM, n = 6", "value": "202.63 ± 21.6", "unit": "mg/gm lens"},
      {"measurement": "band of aggregated proteins at ~50 kDa", "setting": "[3]", "value": "reduced band intensity"},
      {"measurement": "size exclusion profile of total soluble protein (TSP)", "setting": "[4]", "value": "normalized the profile of TSP"},
      {"measurement": "sum of OPs (amplitude)", "setting": "[5]", "value": 445.7, "unit": "μV"},
      {"measurement": "GCL + IPL thickness", "setting": "[6]", "value": 35.692, "unit": "μ"},
      {"measurement": "INL thickness", "setting": "[6]", "value": 13.648, "unit": "μ"},
      {"measurement": "ONL thickness", "setting": "[6]", "value": 30.108, "unit": "μ"},
      {"measurement": "OPL thickness", "setting": "[6]", "value": 5.685, "unit": "μ"},
      {"measurement": "PRL thickness", "setting": "[6]", "value": 19.520, "unit": "μ"},
      {"measurement": "Total retinal thickness", "setting": "[6]", "value": 106.014, "unit": "μ"},
      {"measurement": "mRNA levels of Rho gene", "setting": "Rhodopsin (Rho) [7]", "value": "prevented its decline"},
      {"measurement": "Rho protein expression", "setting": "Rhodopsin (Rho) [8]", "value": "prevented loss of Rho protein expression"},
      {"measurement": "NGF gene expression", "setting": "[9]", "value": "equal beneficiary effect in preventing down regulation of NGF gene"},
      {"measurement": "NGF protein", "setting": "[10]", "value": "prevented loss of NGF protein"},
      {"measurement": "PDGF expression", "setting": "[11]", "value": "inhibited diabetes induced PDGF over expression"}
    ]}
  ]
}
